Test results published in patent US11242327B2, “Analgesic compounds” (RECURIUM IP HOLDINGS, LLC, priority 2017, dated 2022).
Structures can show the parent of a compound that is named as a salt. Where two headings read alike, the source gives them in different places.

Tests used:
Type in all cases: in vivo
[1] = Bioavailability Test (rat pharmacokinetics); settings: for F: PO 30 mg/kg vs IV 3 mg/kg; for Vd: read-out: Vdss
Experimental: Oral bioavailability of compounds of Formulae (Ie), (Ih), (Ik), and (Ir), or a pharmaceutically acceptable salt of any of the foregoing, were evaluated in fasted male Sprague-Dawley (SD) rats weighing 200-225g. Compounds were dosed at 3 mg/kg (IV) and 30 mg/kg (PO). Unless otherwise noted, compounds were dissolved in 0.9% saline for IV dosing and 100% sterile water for PO dosing. Pharmacokinetic parameters were determined using Phoenix WinNonlin (v7.0). […]

male Sprague-Dawley rats [2] = assay: Formalin Paw Test, rat, oral; settings: 30 mg/kg; for Early Phase, seconds of paw licking: early/acute phase (0-10 minutes); for Late Phase, seconds of paw licking: late/tonic phase (10-35 minutes)
Experimental: One test compound or the vehicle was administered to each rat or mouse in each test group (8 rats or mice per group). Non-fasted male Sprague-Dawley rats weighing 200-225 g or non-fasted male ICR mice weighing 23±3 g were used. […] Responses were measured every 5 minutes after the formalin injection for 35 minutes. The results in Table 2 are for oral administration in rat and the results in Table 3 are for intraperitoneal administration in mouse. In Tables 2 and 3, 'A' designates <70 seconds of paw licking, 'B' designates >70 and <165 seconds of paw licking, and 'C' designates >165 seconds of paw licking.

male Sprague-Dawley rats [3] = assay: UVB Inflammatory Pain Test (thermal hyperalgesia); settings: rat, oral; for paw withdrawal latency, 1 h: 1 h after dosing; for paw withdrawal latency, 2 h: 2 h after dosing; for paw withdrawal latency, 4 h: 4 h after dosing
Experimental: UVB irradiation to the surface of the hind paw was used to induce cutaneous inflammatory pain in non-fasted male Sprague-Dawley rats weighing 175-300 g. On Day −3, animals were restrained and the plantar surface of the left hind paw was exposed to 350 mJoules/cm^2 of UVB irradiation using a narrow band UVB light source (Daavlin®, Bryan, Ohio). Following UVB irradiation, animals were returned to their home cage. Thermal hyperalgesia was assessed prior to dosing and approximately 1, 2, and 4 hours after dosing on Day 0 using a radiant heat plantar test apparatus (IITC Life Sciences©; Woodland Hills, Calif.). Animals were placed in individual acrylic chambers on a glass platform warmed to 30±2° C. and allowed to acclimate to their surroundings for a minimum of 15 minutes before testing. The stimulus was presented to the plantar surface and the timer was activated. The stimulus intensity was set such that pre-injury paw withdrawal latencies were approximately 12-18 seconds. Paw withdrawal latency values were recorded at the first observed nocifensive behavior (paw withdrawal, flinching, biting and/or licking). Three paw withdrawal latencies were measured for each hind paw per time point. The mean of the 3 values was taken as the paw withdrawal latency for that time point. A maximum cutoff latency of 30 seconds was used to prevent injury to the animal. The mean and standard error of the mean (SEM) were determined for each paw for each treatment group at each time point. Test compounds were administered orally at concentrations of 3, 10, 30 or 100 mg/kg; celecoxib was administered orally at a concentration of 30 mg/kg; and acetaminophen was administered orally at a concentration of 300 mg/kg. The control group received the vehicle (sterile water). In Table 4, ‘A’ designates >8 seconds of paw withdrawal latency, ‘B’ designates >6 and <8 seconds of paw withdrawal latency, and ‘C’ designates <6 seconds of paw withdrawal latency.
The results provided in Table 4 are for oral administration in rats. […] Furthermore, while acetaminophen was dosed at 300 mg/kg, compounds of Formulae (Ie), (Ih) and (Ik), or a pharmaceutically acceptable salt of any of the foregoing, were dosed at 3 mg/kg, 10 mg/kg and 100 mg/kg.

[4] = male, Sprague-Dawley, in vivo, IV 3 mg/kg, DMSO, PEG400, and 30% HPβCD (5/20/75)
[5] = male, Sprague-Dawley, in vivo, PO 30 mg/kg, PEG400, PVP, Tween 80, 0.5% CMC in water (9/0.5/0.5/90)
[6] = male, Sprague-Dawley, in vivo, IV 3 mg/kg, 0.9% saline
[7] = male, Sprague-Dawley, in vivo, PO 30 mg/kg, sterile water

CC(F)(F)c1csc(C23CC(N)(C2)C3)n1 [Compound 25, 3-(4-(1,1-difluoroethyl)thiazol-2-yl)bicyclo[1.1.1]pentan-1-amine hydrochloride]
F ([1]; vehicles of footnote a): 115% | AUC(0-inf) [1, 4]: 13 µM·h | clearance [1, 4]: 17 mL/min/kg | half-life [1, 4]: 3.7 h | Vd [1, 4]: 3.2 L/kg | Cmax [1, 5]: 24 µM | Tmax [1, 5]: 1.2 h | AUC(0-t) ([1]; male, Sprague-Dawley, in vivo, PO 30 mg/kg, PEG400, PVP, Tween 80, 0.5% CMC in water (9/0.5/0.5/90), read-out: AUC24h): 144 µM·h | Early Phase, seconds of paw licking (male Sprague-Dawley rats [2]): A (<70 seconds of paw licking) | Late Phase, seconds of paw licking (male Sprague-Dawley rats [2]): A (<70 seconds of paw licking)

COc1cccc(C23CC(N)(C2)C3)c1.Cl [Compound 18, 3-(3-Methoxyphenyl)bicyclo[1.1.1]pentan-1-amine hydrochloride]
Early Phase, seconds of paw licking (male Sprague-Dawley rats [2]): A (<70 seconds of paw licking) | Late Phase, seconds of paw licking (male Sprague-Dawley rats [2]): B (>70 and <165 seconds of paw licking)

CC(C)C(F)(F)C12CC(N)(C1)C2.Cl [Compound 20, 3-(1,1-Difluoro-2-methylpropyl)bicyclo[1.1.1]pentan-1-amine hydrochloride]
Early Phase, seconds of paw licking (male Sprague-Dawley rats [2]): A (<70 seconds of paw licking) | Late Phase, seconds of paw licking (male Sprague-Dawley rats [2]): C (>165 seconds of paw licking)

Cl.OCCNC12CC(C(F)(F)F)(C1)C2 [Compound 9, 2-((3-(Trifluoromethyl)bicyclo[1.1.1]pentan-1-yl)amino)ethan-1-ol hydrochloride]
Early Phase, seconds of paw licking (male Sprague-Dawley rats [2]): A (<70 seconds of paw licking) | Late Phase, seconds of paw licking (male Sprague-Dawley rats [2]): C (>165 seconds of paw licking)

COc1ccc(C23CC(N)(C2)C3)cc1.Cl [Compound 4, 3-(4-Methoxyphenyl)bicyclo[1.1.1]pentan-1-amine hydrochloride]
Early Phase, seconds of paw licking (male Sprague-Dawley rats [2]): A (<70 seconds of paw licking) | Late Phase, seconds of paw licking (male Sprague-Dawley rats [2]): A (<70 seconds of paw licking)

Cl.NC12CC(c3ccc(C(F)(F)F)cc3)(C1)C2 [Compound 3, 3-(4-(trifluoromethyl)phenyl)bicyclo[1.1.1]pentan-1-amine hydrochloride]
Early Phase, seconds of paw licking (male Sprague-Dawley rats [2]): A (<70 seconds of paw licking) | Late Phase, seconds of paw licking (male Sprague-Dawley rats [2]): A (<70 seconds of paw licking)

O=C(CO)NC12CC(C(F)(F)F)(C1)C2 [Compound 7, 2-Hydroxy-N-(3-(trifluoromethyl)bicyclo[1.1.1]pentan-1-yl)acetamide]
paw withdrawal latency, 1 h (male Sprague-Dawley rats [3]; 3 mg/kg): B (>6 and <8 seconds of paw withdrawal latency) | paw withdrawal latency, 2 h (male Sprague-Dawley rats [3]; 3 mg/kg): B (>6 and <8 seconds of paw withdrawal latency) | paw withdrawal latency, 4 h (male Sprague-Dawley rats [3]; 3 mg/kg): B (>6 and <8 seconds of paw withdrawal latency) | paw withdrawal latency, 1 h (male Sprague-Dawley rats [3]; 10 mg/kg): C (<6 seconds of paw withdrawal latency) | paw withdrawal latency, 2 h (male Sprague-Dawley rats [3]; 10 mg/kg): C (<6 seconds of paw withdrawal latency) | paw withdrawal latency, 4 h (male Sprague-Dawley rats [3]; 10 mg/kg): B (>6 and <8 seconds of paw withdrawal latency) | paw withdrawal latency, 1 h (male Sprague-Dawley rats [3]; 30 mg/kg): B (>6 and <8 seconds of paw withdrawal latency) | paw withdrawal latency, 2 h (male Sprague-Dawley rats [3]; 30 mg/kg): B (>6 and <8 seconds of paw withdrawal latency) | paw withdrawal latency, 4 h (male Sprague-Dawley rats [3]; 30 mg/kg): B (>6 and <8 seconds of paw withdrawal latency) | paw withdrawal latency, 1 h (male Sprague-Dawley rats [3]; 100 mg/kg): C (<6 seconds of paw withdrawal latency) | paw withdrawal latency, 2 h (male Sprague-Dawley rats [3]; 100 mg/kg): C (<6 seconds of paw withdrawal latency) | paw withdrawal latency, 4 h (male Sprague-Dawley rats [3]; 100 mg/kg): B (>6 and <8 seconds of paw withdrawal latency) | F [1]: 138% | AUC(0-inf) [1, 6]: 9 µM·h | clearance [1, 6]: 27 mL/min/kg | half-life [1, 6]: 2.3 h | Vd [1, 6]: 2.5 L/kg | AUC(0-inf) [1, 7]: 119 µM·h | Cmax [1, 7]: 67 µM | Tmax [1, 7]: 0.19 h | half-life [1, 7]: 2.5 h | Early Phase, seconds of paw licking (male Sprague-Dawley rats [2]): A (<70 seconds of paw licking) | Late Phase, seconds of paw licking (male Sprague-Dawley rats [2]): B (>70 and <165 seconds of paw licking)

Cl.NC12CC(c3nc4cc(C(F)(F)F)ccc4o3)(C1)C2 [Compound 15, 3-(5-(Trifluoromethyl)benzo[d]oxazol-2-yl)bicyclo[1.1.1]pentan-1-amine hydrochloride]
Early Phase, seconds of paw licking (male Sprague-Dawley rats [2]): A (<70 seconds of paw licking) | Late Phase, seconds of paw licking (male Sprague-Dawley rats [2]): C (>165 seconds of paw licking)

Cl.NC12CC(c3nc4cc(C(F)(F)F)ccc4s3)(C1)C2 [Compound 14, 3-(5-(trifluoromethyl)benzo[d]thiazol-2-yl)bicyclo[1.1.1]pentan-1-amine hydrochloride]
Early Phase, seconds of paw licking (male Sprague-Dawley rats [2]): A (<70 seconds of paw licking) | Late Phase, seconds of paw licking (male Sprague-Dawley rats [2]): C (>165 seconds of paw licking)

Cl.O=C(O)CNC12CC(C(F)(F)F)(C1)C2 [Compound 6, (3-(trifluoromethyl)bicyclo[1.1.1]pentan-1-yl)glycine hydrochloride]
paw withdrawal latency, 1 h (male Sprague-Dawley rats [3]; 3 mg/kg): C (<6 seconds of paw withdrawal latency) | paw withdrawal latency, 2 h (male Sprague-Dawley rats [3]; 3 mg/kg): B (>6 and <8 seconds of paw withdrawal latency) | paw withdrawal latency, 4 h (male Sprague-Dawley rats [3]; 3 mg/kg): A (>8 seconds of paw withdrawal latency) | paw withdrawal latency, 1 h (male Sprague-Dawley rats [3]; 10 mg/kg): B (>6 and <8 seconds of paw withdrawal latency) | paw withdrawal latency, 2 h (male Sprague-Dawley rats [3]; 10 mg/kg): B (>6 and <8 seconds of paw withdrawal latency) | paw withdrawal latency, 4 h (male Sprague-Dawley rats [3]; 10 mg/kg): B (>6 and <8 seconds of paw withdrawal latency) | paw withdrawal latency, 1 h (male Sprague-Dawley rats [3]; 30 mg/kg): A (>8 seconds of paw withdrawal latency) | paw withdrawal latency, 2 h (male Sprague-Dawley rats [3]; 30 mg/kg): B (>6 and <8 seconds of paw withdrawal latency) | paw withdrawal latency, 4 h (male Sprague-Dawley rats [3]; 30 mg/kg): B (>6 and <8 seconds of paw withdrawal latency) | paw withdrawal latency, 1 h (male Sprague-Dawley rats [3]; 100 mg/kg): A (>8 seconds of paw withdrawal latency) | paw withdrawal latency, 2 h (male Sprague-Dawley rats [3]; 100 mg/kg): A (>8 seconds of paw withdrawal latency) | paw withdrawal latency, 4 h (male Sprague-Dawley rats [3]; 100 mg/kg): B (>6 and <8 seconds of paw withdrawal latency) | F [1]: 134% | AUC(0-inf) [1, 6]: 1.8 µM·h | clearance [1, 6]: 121 mL/min/kg | half-life [1, 6]: 0.15 h | Vd [1, 6]: 0.79 L/kg | AUC(0-inf) [1, 7]: 29 µM·h | Cmax [1, 7]: 32 µM | Tmax [1, 7]: 0.22 h | half-life [1, 7]: 1.6 h | Early Phase, seconds of paw licking (male Sprague-Dawley rats [2]): A (<70 seconds of paw licking) | Late Phase, seconds of paw licking (male Sprague-Dawley rats [2]): B (>70 and <165 seconds of paw licking)

Cl.NC12CC(c3ccccc3)(C1)C2 [Compound 22, 3-Phenylbicyclo[1.1.1]pentan-1-amine hydrochloride]
Early Phase, seconds of paw licking (male Sprague-Dawley rats [2]): A (<70 seconds of paw licking) | Late Phase, seconds of paw licking (male Sprague-Dawley rats [2]): B (>70 and <165 seconds of paw licking)
